A short description of the series: logP. It counts as physicochemical.

Regarding `Cc1nn(C)c(F)c1C(=S)N(C1CC1)C(C)C1CCCc2ccccc21` (centres unmarked) [I.3, N-cyclopropyl-5-fluoro-1,3-dimethyl-N-[1-(1,2,3,4-tetrahydronaphthalen-1-yl)ethyl]-1H-pyrazole-4-carbothioamide], the lipophilicity (logP) came to 4.39.

In turn, `CC(N(C(=O)c1cn(C)nc1C(F)F)C1CC1)C1(O)CCCc2ccccc21` (centres unmarked) [I.10, N-cyclopropyl-3-(difluoromethyl)-N-[1-(1-hydroxy-1,2,3,4-tetrahydronaphthalen-1-yl)ethyl]-1-methyl-1H-pyrazole-4-carboxamide] had a lipophilicity (logP) of 2.94.

What is called logP is a log measure of how a compound divides between an organic and an aqueous phase. Low readings indicate lower lipophilicity, high ones higher lipophilicity.

The record behind these values is patent publication US9233929B2, “Fungicide N-cycloalkyl-N-bicyclimethylene-carboxamide derivatives” (priority 2009, dated 2016).
